Assay [1] has as its target T1, pY641-STAT6 in PBMC (Homo sapiens, UniProt P42226).
T1 construct: Cryopreserved Peripheral Blood Mononuclear Cells (PBMC) are from AllCells; host or cells: cryopreserved PBMC
T1 sequence (P42226 1-847): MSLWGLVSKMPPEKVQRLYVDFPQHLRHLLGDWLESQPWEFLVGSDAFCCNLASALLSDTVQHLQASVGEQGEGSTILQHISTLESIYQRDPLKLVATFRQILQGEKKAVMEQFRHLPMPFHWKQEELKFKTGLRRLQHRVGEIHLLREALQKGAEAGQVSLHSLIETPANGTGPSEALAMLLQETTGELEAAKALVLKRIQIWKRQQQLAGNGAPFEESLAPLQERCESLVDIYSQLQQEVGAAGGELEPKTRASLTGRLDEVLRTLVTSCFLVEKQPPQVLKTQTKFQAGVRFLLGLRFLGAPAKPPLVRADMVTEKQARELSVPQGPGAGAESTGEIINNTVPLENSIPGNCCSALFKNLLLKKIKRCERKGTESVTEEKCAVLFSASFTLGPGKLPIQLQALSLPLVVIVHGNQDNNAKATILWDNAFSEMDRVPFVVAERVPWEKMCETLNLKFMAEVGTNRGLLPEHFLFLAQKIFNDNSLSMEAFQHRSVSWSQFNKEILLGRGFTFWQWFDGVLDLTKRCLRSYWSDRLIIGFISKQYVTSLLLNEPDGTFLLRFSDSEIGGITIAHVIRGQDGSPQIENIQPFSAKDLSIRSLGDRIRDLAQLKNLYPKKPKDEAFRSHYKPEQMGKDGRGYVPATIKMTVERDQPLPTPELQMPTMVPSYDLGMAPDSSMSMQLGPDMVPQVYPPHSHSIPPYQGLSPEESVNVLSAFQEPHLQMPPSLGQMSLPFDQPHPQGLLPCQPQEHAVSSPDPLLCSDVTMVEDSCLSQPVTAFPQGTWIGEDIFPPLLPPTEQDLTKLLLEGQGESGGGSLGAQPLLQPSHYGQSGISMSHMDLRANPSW
Briefly: MSD-pSTAT-PBMC Assay (pSTAT6, IL-4 stimulated). The format is cell-based. As to conditions: PBMC, compound 3 hrs, then 1 ng/mL IL-4 for 10 min; Table 1114; read-out: pSTAT6. The method, boiled down:
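MSD electrochemiluminescence read-out: total STAT captured, probed with anti-pY641-STAT6 or anti-pY705-STAT3. Human PBMC, 3 h compound pretreatment, 10 min stimulation (IL-4 1 ng/mL or IL-6 10 ng/mL). Unstimulated signal subtracted, DMSO-normalized, variable-slope IC50.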

Assay [2] has as its target T2, pY705-STAT3 in PBMC (Homo sapiens, UniProt P40763).
T2 construct: Cryopreserved Peripheral Blood Mononuclear Cells (PBMC) are from AllCells; host or cells: cryopreserved PBMC
Briefly: MSD-pSTAT-PBMC Assay (pSTAT3, IL-6 stimulated). Format: cell-based. Conditions: PBMC, compound 3 hrs, then 10 ng/mL IL-6 for 10 min; Table 1114; read-out: pSTAT3. The method, boiled down: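 pY705-STAT3 was detected electrochemiluminescently on total-STAT3 capture plates, using lysates of human PBMCs given compound for 3 h and then IL-6 (10 ng/mL, 10 min). Values were background-subtracted against unstimulated wells and set relative to DMSO. IC50 was fitted with variable slope.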

T2 sequence (P40763 whole entry): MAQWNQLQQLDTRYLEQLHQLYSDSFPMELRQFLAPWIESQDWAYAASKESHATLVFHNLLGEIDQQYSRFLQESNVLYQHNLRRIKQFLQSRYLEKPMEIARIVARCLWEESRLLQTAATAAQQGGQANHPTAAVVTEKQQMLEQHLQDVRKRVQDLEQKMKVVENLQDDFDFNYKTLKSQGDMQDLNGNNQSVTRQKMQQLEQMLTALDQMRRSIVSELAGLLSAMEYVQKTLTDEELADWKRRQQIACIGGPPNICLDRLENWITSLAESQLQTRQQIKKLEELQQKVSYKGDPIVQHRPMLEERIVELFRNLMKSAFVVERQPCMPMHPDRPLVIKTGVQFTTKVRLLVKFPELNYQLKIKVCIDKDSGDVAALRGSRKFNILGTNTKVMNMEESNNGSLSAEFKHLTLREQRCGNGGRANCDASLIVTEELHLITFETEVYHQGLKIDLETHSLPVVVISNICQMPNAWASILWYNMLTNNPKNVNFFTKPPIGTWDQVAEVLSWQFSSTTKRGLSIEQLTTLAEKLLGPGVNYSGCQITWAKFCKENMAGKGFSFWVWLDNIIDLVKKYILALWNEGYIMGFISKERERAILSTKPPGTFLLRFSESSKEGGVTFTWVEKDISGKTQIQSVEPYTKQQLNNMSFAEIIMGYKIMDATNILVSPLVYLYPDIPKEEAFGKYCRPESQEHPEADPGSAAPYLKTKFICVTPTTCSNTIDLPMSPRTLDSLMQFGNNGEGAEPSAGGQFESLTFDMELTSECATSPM

As for `CC(C)OC(=O)OCOP(=O)(Cc1ccc2sc(C(=O)N[C@H]3CCCC4CC[C@@H](C(=O)N5CC(c6cccnc6)C5)N4C3=O)cc2c1)OCOC(=O)OC(C)C` (stereo partly drawn) [Compound 158, diisopropyl (((((2-(((3S,6S,9aS)-5-oxo-3-(3-(pyridin-3-yl)azetidine-1-carbonyl)octahydro-1H-pyrrolo[1,2-a]azepin-6-yl)carbamoyl)benzo [b]thiophen-5-yl)methyl)phosphoryl)bis (oxy))bis(methyl-ene))bis(carbonate)], the IC50 was > 3000 nM in assay [1] and < 100 nM in assay [2].

`CC(C)CC(=O)SCCOP(=O)(OCCSC(=O)CC(C)C)C(F)(F)c1ccc2ccc(C(=O)N[C@H]3CCCC[C@H]4CC[C@@H](C(=O)N5CCC(c6cc[nH]c(=O)c6)C5)N4C3=O)cc2c1` (stereo partly drawn) [Compound 160, S,S′-((((difluoro(7-(((3S,6S,10aS)-5-oxo-3-(3-(2-oxo-1,2-dihydropyridin-4-yl)pyrrolidine-1-carbonyl)decahydropyrrolo [1,2-a]azocin-6-yl)carbamoyl)naphthalen-2-yl)methyl)phosphoryl)bis(oxy))bis(ethane-2,1-diyl)) bis(3-methylbutane thioate)]: the IC50 in assay [1] and in assay [2] was < 100 nM throughout.

In the case of `CC(C)CC(=O)SCCOP(=O)(OCCSC(=O)CC(C)C)C(F)(F)c1ccc2sc(C(=O)N[C@H]3CCCC(C)[C@H]4CC[C@@H](C(=O)N5CC(c6cccnc6)C5)N4C3=O)cc2c1` (stereo partly drawn) [Compound 161, S,S′-((((difluoro(2-(((3S,6S,10aR)-10-methyl-5-oxo-3-(3-(pyridin-3-yl)azetidine-1-carbonyl)decahydropyrrolo [1,2-a]azocin-6-yl)carbamoyl)benzo[b]thiophen-5-yl)methyl)phosphoryl)bis(oxy))bis(ethane-2,1-diyl)) bis(3-methylbutane thioate)], the IC50 in assay [1] was > 3000 nM; in assay [2] it was < 100 nM.

For the compound `CC(C)(C)C(=O)OCOP(=O)(OCOC(=O)C(C)(C)C)C(F)(F)c1ccc2sc(C(=O)NC3CCCCC4CCCC(C(=O)N5CC(C#N)C(c6ccccc6)C5)N4C3=O)cc2c1` [Compound 169, ((((2-(((4S,7S,11aS)-4-((rel- trans)-3-cyano-4-phenylpyrrolidine-1-carbonyl)-6-oxodecahydro-2H-pyrido[1,2-a]azocin-7-yl)carbamoyl)benzo[b]thiophen-5-yl)difluoromethyl)phosphroyl)bis(oxy)) bis(methylene) bis(2,2-dimethylpropaneoate)], the IC50 in assay [1] was < 100 nM; in assay [2], 100 to 1000 nM.

As to `CC(C)(C)C(=O)OCOP(=O)(OCOC(=O)C(C)(C)C)C(F)(F)c1ccc2sc(C(=O)N[C@H]3CCC[C@H]4CCC[C@@H](C(=O)N5CC(C#N)C(c6ccccc6)C5)N4C3=O)cc2c1` (stereo partly drawn) [Compound 170, ((((2-(((4S,7S,10aS)-4-(rel-(trans)-3-cyano-4-phenylpyrrolidine-1-carbonyl)-6-oxodecahydropyrido [1,2-a]azepin-7-yl)carbamoyl)benzo[b]thiophen-5-yl)difluoromethyl)phosphoryl)bis(oxy)) bis(methylene) bis(2,2-dimethylpropanoate)], the values for the IC50 in assay [1] and in assay [2] were < 100 nM and 100 to 1000 nM, respectively.

As for `CC(C)(C)C(=O)OCOP(=O)(OCOC(=O)C(C)(C)C)C(F)(F)c1ccc2sc(C(=O)N[C@H]3CCCC[C@H]4CCC[C@@H](C(=O)N5CC(n6ccnc6)C5)N4C3=O)cc2c1` [Compound 171, ((((2-(((4S,7S,11aS)-4-(3-(1H-imidazol-1-yl)azetidine-1-carbonyl)-6-oxodecahydro-2H-pyrido[1,2-a]azocin-7-yl)carbamoyl)benzo[b]thiophen-5-yl)difluoromethyl)phosphoryl)bis(oxy)) bis(methylene) bis(2,2-dimethylpropanoate)], the IC50 in assay [1] and in assay [2] was > 3000 nM throughout.

Consider `CC(C)(C)C(=O)OCOP(=O)(OCOC(=O)C(C)(C)C)C(F)(F)c1ccc2sc(C(=O)N[C@H]3CCCC[C@H]4CCC[C@@H](C(=O)N5CC(C(=O)N6CCOCC6)C5)N4C3=O)cc2c1` [Compound 172, (((difluoro(2-(((4S,7S,11aS)-4-(3-(morpholine-4-carbonyl)azetidine-1-carbonyl)-6-oxodecahydro-2H-pyrido[1,2-a]azocin-7-yl)carbamoyl)benzo[b]thiophen-5-yl)methyl)phosphoryl)bis(oxy))bis(methylene) bis(2,2-dimethylpropanoate)], for which the IC50 in assay [1] is 1000 to 3000 nM; in assay [2] it was < 100 nM.

As for `CC(C)(C)C(=O)OCOP(=O)(OCOC(=O)C(C)(C)C)C(F)(F)c1ccc2sc(C(=O)N[C@H]3CCC[C@H]4CCC[C@@H](C(=O)N5CC(n6ccnc6)C5)N4C3=O)cc2c1` [Compound 173, ((((2-(((4S,7S,10aS)-4-(3-(1H-imidazol-1-yl)azetidine-1-carbonyl)-6-oxodecahydropyrido [1,2-a]azepin-7-yl)carbamoyl)benzo[b]thiophen-5-yl)difluoromethyl)phosphoryl)bis(oxy)) bis(methylene) bis(2,2-dimethylpropanoate)], the IC50 was > 3000 nM in assay [1] and 100 to 1000 nM in assay [2].

On to `CC(C)(C)C(=O)OCOP(=O)(OCOC(=O)C(C)(C)C)C(F)(F)c1ccc2sc(C(=O)N[C@H]3CCCC[C@H]4CC[C@@H](C(=O)N5CC(F)(c6ccccc6)C5)N4C3=O)cc2c1` [Compound 174, (((difluoro(2-(((3S,6S,10aS)-3-(3-fluoro-3-phenylazetidine-1-carbonyl)-5-oxodecahydropyrrolo [1,2-a]azocin-6-yl)carbamoyl)benzo[b]thiophen-5-yl)methyl)phosphoryl)bis(oxy)) bis(methylene) bis(2,2-dimethylpropanoate)], for which the IC50 in assay [1] is 100 to 1000 nM; in assay [2] it was < 100 nM.

Regarding `CC(C)CC(=O)SCCOP(=O)(OCCSC(=O)CC(C)C)C(F)(F)c1ccc2sc(C(=O)N[C@H]3CCC[C@H]4CC[C@@H](C(=O)N5CC(c6cccnc6)C5)N4C3=O)cc2c1` [Compound 177, S,S′-((((difluoro(2-(((3S,6S,9aS)-5-oxo-3-(3-(pyridin-3-yl)azetidine-1-carbonyl)octahydro-1H-pyrrolo[1,2-a]azepin-6-yl)carbamoyl)benzo[b]thiophen-5-yl)methyl)phosphoryl)bis(oxy))bis(ethane-2,1-diyl)) bis(3-methylbutane thioate)], the values for the IC50 in assay [1] and in assay [2] were 1000 to 3000 nM and < 100 nM, respectively.

Turning to `CCCC(=O)SCCOP(=O)(OCCSC(=O)CCC)C(F)(F)c1ccc2sc(C(=O)NC3CCCC4CCC(C(=O)N5CC(c6cccnc6)C5)N4C3=O)cc2c1` [Compound 179, S,S′-((((difluoro(2-(((3S,6S,9aS)-5-oxo-3-(3-(pyridin-3-yl)azetidine-1-carbonyl)octahydro-1H-pyrrolo[1,2-a]azepin-6-yl)carbamoyl)benzo[b]thiophen-5-yl)methyl)phosphoryl)bis(oxy))bis(ethane-2,1-diyl)) dibutanethioate], the IC50 in assay [1] was 1000 to 3000 nM; in assay [2] it was < 100 nM.

As to `CC(C)OC(=O)OCOP(=O)(OCOC(=O)OC(C)C)C(F)(F)c1ccc2sc(C(=O)N[C@H]3CCC[C@H]4CC[C@@H](C(=O)N5CC(c6cccnc6)C5)N4C3=O)cc2c1` [Compound 180, (((difluoro(2-(((3S,6S,9aS)-5-oxo-3-(3-(pyridin-3-yl)azetidine-1-carbonyl)octahydro-1H-pyrrolo[1,2-a]azepin-6-yl)carbamoyl)benzo[b]thiophen-5-yl)methyl)phosphoryl)bis(oxy)) bis(methylene) diisopropyl bis(carbonate)], the IC50 in assay [1] was > 3000 nM; in assay [2], < 100 nM.

As to `CC(C)(C)C(=O)SCCOP(=O)(OCCSC(=O)C(C)(C)C)C(F)(F)c1ccc2sc(C(=O)N[C@H]3CCCC[C@H]4CC[C@@H](C(=O)N5CC(c6cccnc6)C5)N4C3=O)cc2c1` [Compound 181, S,S′-((((difluoro(2-(((3S,6S,10aS)-5-oxo-3-(3-(pyridin-3-yl)azetidine-1-carbonyl)decahydro-pyrrolo[1,2-a]azocin-6-yl)carbamoyl)benzo[b]thiophen-5-yl)methyl)phosphoryl)bis(oxy))bis(ethane-2,1-diyl)) bis(2,2-dimethylpropanethioate)], the IC50 in assay [1] was > 3000 nM; in assay [2] it was < 100 nM.

For the origin of these results see patent publication US20250215029A1 (Recludix Pharma, Inc., priority 2022, published 2025).
